Measurements as given in patent US9636418B2 (priority 2013, dated 2017).
Values joined by “and” are separate entries in the source; they are usually repeats but may differ in a detail not shown here. Equal entries are not always repeated. “Also recorded” adds a separate entry of the source. Where two headings read alike, the source gives them in different places.

Columns and labels:
male CD-1 mice [1] = conditions: mouse, in vivo
male Sprague-Dawley rats = format: in vivo, rat; conditions: rat, in vivo
in vitro [2] = conditions: monkey, plasma
[3] = cyno plasma, 37° C., incubation 0 hr
in vitro [4] = conditions: human, plasma
[5] = human plasma, 37° C., incubation 0 hr
[6] = test system: TTX-sensitive Nav channels in mouse DRG neuron; format: cell-based; conditions: for 1.x/1.7, partially inactivated: mTTX-S vs hNav1.7, partially inactivated
hNav1.7 [7] = molecular target: T1, hNav1.7 (Homo sapiens, UniProt Q15858); test: cell-based; format: cell-based; conditions: for block of hNav1.7 current: 100 pM peptide; for 1.x/1.7, fully non-inactivated: hNav1.7 vs hNav1.7, fully non-inactivated; for 1.x/1.7, partially inactivated: hNav1.7 vs hNav1.7, partially inactivated
hNav1.5 [8] = molecular target: T2, hNav1.5 (Homo sapiens, UniProt Q14524); test: cell-based; conditions: IonWorks Quattro; read-out: IC50 Nav1.5
hNav1.8 [9] = test: cell-based; format: cell-based, human
hNav1.8 [10] = molecular target: hNav1.8 (Homo sapiens, UniProt Q9Y5Y9); test: cell-based; format: cell-based; conditions: WCPC, n=2
hNav1.5 [11] = molecular target: T2, hNav1.5; test: cell-based; format: cell-based
hNav1.4 [12] = molecular target: T3, hNav1.4 (Homo sapiens, UniProt P35499); format: cell-based
hNav1.5 [13] = molecular target: T2, hNav1.5; test: cell-based; conditions: PatchXpress; * = at high concentrations compound would wash off slowly or not at all; read-out: PX hNav1.5 Tonic IC50
hNav1.3 = hNav1.3 (Homo sapiens, UniProt Q9NY46); format: cell-based
male CD-1 mice [14] = conditions: mouse, in vivo; remark: listed apart in the source
hNav1.4 [15] = molecular target: T3, hNav1.4; test: cell-based; conditions: PatchXpress; * = at high concentrations compound would wash off slowly or not at all; read-out: PX hNav1.4 Tonic IC50
hNav1.7 [16] = molecular target: T1, hNav1.7; test: cell-based; conditions: IonWorks Quattro; read-out: IC50 Nav1.7

T1 sequence (Q15858 whole entry): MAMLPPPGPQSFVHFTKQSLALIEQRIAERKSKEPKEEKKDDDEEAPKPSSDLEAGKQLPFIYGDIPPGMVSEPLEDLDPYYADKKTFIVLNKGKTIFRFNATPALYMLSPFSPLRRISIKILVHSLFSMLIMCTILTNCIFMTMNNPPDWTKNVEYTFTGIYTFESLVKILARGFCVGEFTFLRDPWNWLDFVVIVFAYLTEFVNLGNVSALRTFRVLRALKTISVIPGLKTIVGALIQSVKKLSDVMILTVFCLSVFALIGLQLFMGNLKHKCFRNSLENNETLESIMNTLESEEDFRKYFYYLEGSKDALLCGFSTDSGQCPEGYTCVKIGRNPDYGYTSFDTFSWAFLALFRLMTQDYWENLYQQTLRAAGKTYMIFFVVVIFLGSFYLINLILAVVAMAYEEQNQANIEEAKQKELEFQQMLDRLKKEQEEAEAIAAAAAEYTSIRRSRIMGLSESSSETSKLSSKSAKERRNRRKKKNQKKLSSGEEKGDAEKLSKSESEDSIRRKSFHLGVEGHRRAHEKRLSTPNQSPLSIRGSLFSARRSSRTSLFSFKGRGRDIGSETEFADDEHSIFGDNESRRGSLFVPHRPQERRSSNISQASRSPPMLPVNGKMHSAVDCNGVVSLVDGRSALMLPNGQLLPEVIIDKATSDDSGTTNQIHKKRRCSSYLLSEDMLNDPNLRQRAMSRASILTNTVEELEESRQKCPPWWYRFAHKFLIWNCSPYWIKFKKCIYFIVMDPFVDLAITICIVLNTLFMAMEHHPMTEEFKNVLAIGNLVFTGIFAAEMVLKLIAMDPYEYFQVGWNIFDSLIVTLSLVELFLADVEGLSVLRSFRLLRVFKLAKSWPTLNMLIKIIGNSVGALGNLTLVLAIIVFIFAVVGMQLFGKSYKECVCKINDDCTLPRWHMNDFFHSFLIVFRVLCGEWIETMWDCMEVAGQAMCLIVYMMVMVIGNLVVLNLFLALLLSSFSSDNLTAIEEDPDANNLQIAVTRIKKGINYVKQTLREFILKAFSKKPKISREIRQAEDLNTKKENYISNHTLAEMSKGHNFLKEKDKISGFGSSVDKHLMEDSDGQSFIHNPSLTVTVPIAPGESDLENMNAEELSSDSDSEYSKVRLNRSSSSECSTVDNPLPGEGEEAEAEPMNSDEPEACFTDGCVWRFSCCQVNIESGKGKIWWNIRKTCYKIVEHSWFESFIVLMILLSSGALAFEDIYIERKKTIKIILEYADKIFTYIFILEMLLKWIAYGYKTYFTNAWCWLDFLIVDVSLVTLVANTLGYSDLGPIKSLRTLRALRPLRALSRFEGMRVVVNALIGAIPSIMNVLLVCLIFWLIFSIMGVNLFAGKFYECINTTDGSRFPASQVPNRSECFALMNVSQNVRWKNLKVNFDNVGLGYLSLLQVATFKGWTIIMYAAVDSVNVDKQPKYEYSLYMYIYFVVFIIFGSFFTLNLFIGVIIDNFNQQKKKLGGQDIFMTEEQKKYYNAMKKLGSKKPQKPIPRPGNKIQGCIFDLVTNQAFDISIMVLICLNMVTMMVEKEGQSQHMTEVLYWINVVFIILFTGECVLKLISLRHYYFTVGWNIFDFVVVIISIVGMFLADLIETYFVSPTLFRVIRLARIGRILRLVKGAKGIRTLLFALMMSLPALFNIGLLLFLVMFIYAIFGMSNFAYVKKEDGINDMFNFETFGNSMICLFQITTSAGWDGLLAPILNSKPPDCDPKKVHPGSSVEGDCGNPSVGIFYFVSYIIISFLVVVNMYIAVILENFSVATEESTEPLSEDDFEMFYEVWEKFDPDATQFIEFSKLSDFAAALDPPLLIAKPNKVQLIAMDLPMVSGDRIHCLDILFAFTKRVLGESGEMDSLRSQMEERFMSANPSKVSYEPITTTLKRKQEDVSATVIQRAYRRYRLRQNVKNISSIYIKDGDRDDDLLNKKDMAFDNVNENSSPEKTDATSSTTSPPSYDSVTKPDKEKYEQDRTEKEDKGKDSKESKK
T2 sequence (Q14524 whole entry): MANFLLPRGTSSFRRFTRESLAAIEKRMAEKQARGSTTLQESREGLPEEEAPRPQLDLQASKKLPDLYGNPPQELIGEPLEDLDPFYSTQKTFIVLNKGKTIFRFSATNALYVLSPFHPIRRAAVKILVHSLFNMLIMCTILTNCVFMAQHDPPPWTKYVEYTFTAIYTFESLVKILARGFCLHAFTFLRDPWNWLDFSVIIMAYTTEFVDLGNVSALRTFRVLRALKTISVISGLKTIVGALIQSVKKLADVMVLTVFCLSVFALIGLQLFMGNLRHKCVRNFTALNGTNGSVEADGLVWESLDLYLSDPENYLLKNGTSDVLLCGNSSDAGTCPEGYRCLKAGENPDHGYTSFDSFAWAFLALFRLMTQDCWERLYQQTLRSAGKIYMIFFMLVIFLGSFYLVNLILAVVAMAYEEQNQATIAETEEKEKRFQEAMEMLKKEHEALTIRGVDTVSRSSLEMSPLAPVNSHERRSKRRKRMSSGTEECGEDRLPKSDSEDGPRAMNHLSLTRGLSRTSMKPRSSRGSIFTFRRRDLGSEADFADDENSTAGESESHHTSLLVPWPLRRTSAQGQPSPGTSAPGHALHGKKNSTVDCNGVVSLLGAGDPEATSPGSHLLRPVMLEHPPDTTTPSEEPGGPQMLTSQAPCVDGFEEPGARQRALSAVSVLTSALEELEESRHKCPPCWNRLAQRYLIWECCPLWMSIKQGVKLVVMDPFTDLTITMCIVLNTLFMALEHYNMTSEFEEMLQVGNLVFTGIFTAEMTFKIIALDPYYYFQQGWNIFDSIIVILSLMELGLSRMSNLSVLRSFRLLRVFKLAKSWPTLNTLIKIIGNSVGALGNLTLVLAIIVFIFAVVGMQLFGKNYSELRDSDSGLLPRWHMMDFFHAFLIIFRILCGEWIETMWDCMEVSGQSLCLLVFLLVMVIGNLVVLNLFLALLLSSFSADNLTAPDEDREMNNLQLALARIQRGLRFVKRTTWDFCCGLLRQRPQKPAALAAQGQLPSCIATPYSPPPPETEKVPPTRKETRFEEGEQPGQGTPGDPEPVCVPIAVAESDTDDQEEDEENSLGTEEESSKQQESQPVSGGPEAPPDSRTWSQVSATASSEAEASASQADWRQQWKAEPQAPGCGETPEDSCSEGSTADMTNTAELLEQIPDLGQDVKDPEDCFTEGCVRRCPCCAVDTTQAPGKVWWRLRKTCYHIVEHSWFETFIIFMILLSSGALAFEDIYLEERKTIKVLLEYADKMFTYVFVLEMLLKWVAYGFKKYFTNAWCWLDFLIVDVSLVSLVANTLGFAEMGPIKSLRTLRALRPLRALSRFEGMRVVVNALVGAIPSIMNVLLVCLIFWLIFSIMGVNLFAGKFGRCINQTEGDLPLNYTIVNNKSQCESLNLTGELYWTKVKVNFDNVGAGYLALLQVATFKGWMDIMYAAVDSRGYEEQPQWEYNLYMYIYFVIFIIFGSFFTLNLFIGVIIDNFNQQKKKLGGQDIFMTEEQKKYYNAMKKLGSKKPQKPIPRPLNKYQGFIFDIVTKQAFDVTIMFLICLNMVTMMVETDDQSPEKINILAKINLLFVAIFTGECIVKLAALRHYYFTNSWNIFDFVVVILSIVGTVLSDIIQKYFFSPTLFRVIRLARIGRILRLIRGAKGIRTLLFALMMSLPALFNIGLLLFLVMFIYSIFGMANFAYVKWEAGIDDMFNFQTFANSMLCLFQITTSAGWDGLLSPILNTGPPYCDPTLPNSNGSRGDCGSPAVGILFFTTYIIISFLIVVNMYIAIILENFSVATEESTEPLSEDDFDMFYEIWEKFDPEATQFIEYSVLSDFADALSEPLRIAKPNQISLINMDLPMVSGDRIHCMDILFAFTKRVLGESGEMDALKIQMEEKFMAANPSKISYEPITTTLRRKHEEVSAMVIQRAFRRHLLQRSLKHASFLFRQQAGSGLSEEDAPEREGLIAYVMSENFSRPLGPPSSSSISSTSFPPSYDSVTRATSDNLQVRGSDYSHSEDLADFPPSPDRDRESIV

Which results are given for `CN1CC[C@]23c4c5ccc(O)c4O[C@H]2[C@@H](O)C=C[C@H]3[C@H]1C5` [morphine]?
time spent lifting and/or licking the affected paw, second phase (5-40 min) (male CD-1 mice [1]): significantly reduce pain response; also recorded: significantly reduced the pain response; also recorded: did significantly reduce; formalin response, second phase (5-40 min) (male Sprague-Dawley rats): significantly reduce pain response; also recorded: significantly reduced

Which remaining at 2 h (in vitro [2]) does the source give for `CC[C@H](C)[C@H](NC(=O)[C@H](CO)NC(=O)[C@H](CCCCN)NC(=O)[C@H](CCCNC(=N)N)NC(=O)[C@@H]1CSSC[C@@H]2NC(=O)[C@H](C)NC(=O)[C@H](CCCNC(=N)N)NC(=O)[C@H](CCCCN)NC(=O)[C@H](CO)NC(=O)[C@H](CC(=O)O)NC(=O)[C@@H]3CSSC[C@H](NC(=O)[C@H](CCC(=O)O)NC(=O)[C@H](CC(C)C)NC(=O)CNC(=O)[C@H](CCC(=O)O)NC(=O)[C@H](CSSC[C@H](NC(=O)[C@@H](N)Cc4ccc(O)cc4)C(=O)N[C@@H](CCC(N)=O)C(=O)N[C@@H](CCCCN)C(=O)N[C@@H](Cc4c[nH]c5ccccc45)C(=O)N[C@@H](CCSC)C(=O)N[C@@H](Cc4c[nH]c5ccccc45)C(=O)N[C@@H]([C@@H](C)O)C(=O)N3)NC2=O)C(=O)N[C@@H](CCCCN)C(=O)N[C@@H](CC(C)C)C(=O)N[C@@H](Cc2c[nH]c3ccccc23)C(=O)N1)C(N)=O` [SEQ ID NO: 138, [Glu20;Ser28]JzTx-V(1-29)] here?
The remaining at 2 h was 78%.

What about the remaining at 4 h (in vitro [2]) of the same compound?
The remaining at 4 h was 75%.

What about the remaining at 6 h (in vitro [2]) of the same compound?
Its remaining at 6 h is 69%.

What about the remaining at 8 h (in vitro [2]) of the same compound?
Its remaining at 8 h is 62%.

And the remaining at 24 h (in vitro [2])?
Its remaining at 24 h is 59%.

What about the “% Peptide Remaining” value [3] of the same compound?
The value was 100%.

And the remaining at 2 h (in vitro [4])?
The remaining at 2 h was 86%.

And the remaining at 4 h (in vitro [4])?
The remaining at 4 h was 82%.

And the remaining at 6 h (in vitro [4])?
The remaining at 6 h was 72%.

What about the remaining at 8 h (in vitro [4]) of the same compound?
The remaining at 8 h was 68%.

And the remaining at 24 h (in vitro [4])?
The remaining at 24 h was 49%.

And the “% Peptide Remaining” value [5]?
Its value is 100%.

Which results are given for `C#CC[C@H](N)C(=O)N[C@@H](Cc1ccc(O)cc1)C(=O)N[C@H]1CSSC[C@@H]2NC(=O)[C@@H]3CSSC[C@@H](C(=O)N[C@@H](CCCNC(=N)N)C(=O)N[C@@H](CCCCN)C(=O)N[C@H](C(=O)N[C@H](C(N)=O)[C@@H](C)CC)[C@@H](C)CC)NC(=O)[C@H](Cc4c[nH]c5ccccc45)NC(=O)[C@H](CC(C)C)NC(=O)[C@H](CCCCN)NC(=O)[C@H](CSSC[C@H](NC(=O)[C@H]([C@@H](C)O)NC(=O)[C@H](Cc4c[nH]c5ccccc45)NC(=O)[C@H](CCCC)NC(=O)[C@H](Cc4c[nH]c5ccccc45)NC(=O)[C@H](CCCCN)NC(=O)[C@H](CCC(N)=O)NC1=O)C(=O)N[C@@H](CC(=O)O)C(=O)N[C@@H](CO)C(=O)N[C@@H](CCCCN)C(=O)N[C@@H](CCCNC(=N)N)C(=O)N[C@@H](C)C(=O)N3)NC(=O)[C@H](CCCNC(=N)N)NC(=O)[C@H](CC(C)C)NC(=O)CNC(=O)[C@H](CCC(=O)O)NC2=O` [SEQ ID NO: 425, Pra-[Nle6]JzTx-V]?
block of TTX-sensitive Nav current [6]: blocked most TTX-sensitive Nav current; inhibition of TTX-sensitive sodium current ([6]; 1 nM peptide (as printed in text), mouse DRG neurons): almost complete inhibition; potency relative to JzTx-V (more potent) ([6]; TTX-sensitive current, mouse DRG neurons): about 3 fold; block of hNav1.7 current (hNav1.7 [7]; held at −77 mV (partially inactivated state)): fully blocked Nav1.7 current; also recorded: complete inhibition; block of hNav1.7 current (hNav1.7 [7]; held at −140 mV (fully non-inactivated state)): fully blocked Nav1.7 current; also recorded: complete inhibition

Which results are given for `CC[C@H](C)[C@H](NC(=O)[C@@H](NC(=O)[C@H](CCCCN)NC(=O)[C@H](CCCNC(=N)N)NC(=O)[C@@H]1CSSC[C@@H]2NC(=O)[C@H](C)NC(=O)[C@H](CCCNC(=N)N)NC(=O)[C@H](CCCCN)NC(=O)[C@H](CO)NC(=O)[C@H](CC(=O)O)NC(=O)[C@@H]3CSSC[C@H](NC(=O)[C@H](CCCNC(=N)N)NC(=O)[C@H](CC(C)C)NC(=O)CNC(=O)[C@H](CCC(=O)O)NC(=O)[C@H](CSSC[C@H](NC(=O)[C@@H](N)Cc4ccc(O)cc4)C(=O)N[C@@H](CCC(N)=O)C(=O)N[C@@H](CCCCN)C(=O)N[C@@H](Cc4c[nH]c5ccccc45)C(=O)N[C@@H](CCSC)C(=O)N[C@@H](Cc4c[nH]c5ccccc45)C(=O)N[C@@H]([C@@H](C)O)C(=O)N3)NC2=O)C(=O)N[C@@H](CCCCN)C(=O)N[C@@H](CC(C)C)C(=O)N[C@@H](Cc2c[nH]c3ccccc23)C(=O)N1)[C@@H](C)CC)C(N)=O` [compound 2]?
1.x/1.7, fully non-inactivated ([6]; mTTX-S vs hNav1.7, fully non-inactivated): 530; 1.x/1.7, partially inactivated [6]: 111; IC50 (hNav1.5 [8]): 7.2 µM and > 7 µM; 1.x/1.7, fully non-inactivated (hNav1.8 [9]; hNav1.8 vs hNav1.7, fully non-inactivated): 5724; 1.x/1.7, partially inactivated (hNav1.8 [9]; hNav1.8 vs hNav1.7, partially inactivated): 3282; IC50 (hNav1.8 [10]; hNav1.8, fully non-inactivated, read-out: Mean IC50, fully non-inactivated): 0.81 µM; IC50 (hNav1.8 [10]; hNav1.8, partially inactivated, read-out: Mean IC50, partially inactivated): 0.53 µM; IC50 (hNav1.5 [11]; WCPC, hNav1.5, fully non-inactivated, n=2): 0.882 µM; 1.x/1.7, fully non-inactivated (hNav1.5 [11]; hNav1.5 vs hNav1.7, fully non-inactivated): 6230; 1.x/1.7, partially inactivated (hNav1.5 [11]; hNav1.5 vs hNav1.7, partially inactivated): 2641; 1.x/1.7, fully non-inactivated (hNav1.7 [7]): 1; 1.x/1.7, partially inactivated (hNav1.7 [7]): 1; 1.x/1.7, fully non-inactivated (hNav1.4 [12]; hNav1.4 vs hNav1.7, fully non-inactivated): 75; 1.x/1.7, partially inactivated (hNav1.4 [12]; hNav1.4 vs hNav1.7, partially inactivated): 58; IC50 (hNav1.5 [13]): 1.6 µM and 2.21 µM and 3.25 µM; 1.x/1.7, fully non-inactivated (hNav1.3; hNav1.3 vs hNav1.7, fully non-inactivated): 99; 1.x/1.7, partially inactivated (hNav1.3; hNav1.3 vs hNav1.7, partially inactivated): 76

For `Cc1cccc(C)c1OCC(C)N` (stereo not shown) [mexilitine, reference compound], which “thermal latency / thermal hyperalgesia” value (male CD-1 mice [14]) is on record?
Its value is “significantly reverse thermal hyperalgesia”.

Which “1.x/1.7, partially inactivated” value [6] does the source give for `C#CC[C@H](N)C(=O)N[C@@H](Cc1ccc(O)cc1)C(=O)N[C@H]1CSSC[C@@H]2NC(=O)[C@@H]3CSSC[C@@H](C(=O)N[C@@H](CCCNC(=N)N)C(=O)N[C@@H](CCCCN)C(=O)N[C@H](C(=O)N[C@H](C(N)=O)[C@@H](C)CC)[C@@H](C)CC)NC(=O)[C@H](Cc4c[nH]c5ccccc45)NC(=O)[C@H](CC(C)C)NC(=O)[C@H](CCCCN)NC(=O)[C@H](CSSC[C@H](NC(=O)[C@H]([C@@H](C)O)NC(=O)[C@H](Cc4c[nH]c5ccccc45)NC(=O)[C@H](CCCC)NC(=O)[C@H](Cc4c[nH]c5ccccc45)NC(=O)[C@H](CCCCN)NC(=O)[C@H](CCC(N)=O)NC1=O)C(=O)N[C@@H](CC(=O)O)C(=O)N[C@@H](CO)C(=O)N[C@@H](CCCCN)C(=O)N[C@@H](CCCNC(=N)N)C(=O)N[C@@H](C)C(=O)N3)NC(=O)[C@H](CCCNC(=N)N)NC(=O)[C@H](CC(C)C)NC(=O)CNC(=O)[C@H](CCC(=O)O)NC2=O` [compound 425] here?
The value was 6335.

And the “1.x/1.7, fully non-inactivated” value (hNav1.7 [7])?
Its value is 1.

What about the “1.x/1.7, partially inactivated” value (hNav1.7 [7]) of the same compound?
Its value is 1.

And the IC50 (hNav1.4 [15])?
Its IC50 is 0.004 µM and 0.0025 µM.

And the IC50 (hNav1.5 [13])?
Its IC50 is 0.97 µM and 0.7 µM.

And the IC50 (hNav1.7 [16])?
The IC50 was 0.008 µM and 0.013 µM.
